Data taken from patent US20060008512A1, “Composition and methods for improved animal performance” (priority 2004, published 2006).
Where two headings read alike, the source gives them in different places. Marks after values point to notes of the source that are not given here.

Assays:
laying turkeys = settings: 2 mg L-thyroxine/hen/day i.m.; cited from earlier work
[1] = system: fast-growing broiler chickens; settings: low ambient temperature and pelleted feed; untreated 21.5%; cited from earlier work
young rats = settings: 10 mg L-thyroxine/kg diet; 400 mg magnesium/kg; cited from earlier work
[2] = system: Cobb broiler breeder hens and roosters
Source text: Molting Cobb Broiler Breeder Hens and Roosters with Dietary Thyroxine.

[3] = daily injections of 150 mcg/kg body weight; cited from earlier work
[4] = system: Hy-Line W-36 White Leghorn hens
Protocol: Experiment 1. […] While acknowledging that injecting individual hens is commercially impractical (Webster, 2003), nevertheless an initial study was needed to establish the efficacy of T4 when it is delivered directly into the hens in precisely measured doses. The photoperiod was 17 hours of light per day (0330 hours to 2030 hours).

[5] = system: growing cockerel and pullet chickens; settings: 10 mg/kg dietary thyroid hormone; cited from earlier work
[6] = system: 66-week-old caged laying hens; settings: cited from earlier work
[7] = system: 96-week old broiler breeder cockerels; settings: 2 or 5 ppm T4 in diet for 4 weeks; cited from earlier work
Bovans caged laying hens = assay: Experiment 6: molting of caged laying hens with dietary L-thyroxine or TIC plus MgO or sodium salicylate; type: in vivo, chicken; settings: 10 hours of light daily
Source text: Experiment 6. Molting of Caged Laying with Dietary L-Thyroxine or Thyroactive Iodinated Casein Plus MgO or Sodium Salicylate.
In Experiment 6, a conventional feed withdrawal molting procedure was compared with 5 dietary thyroxine treatments. Body weight loss after 9 days was greater, days to 0% egg production (9 days) shorter, ovary plus oviduct weight numerically lighter on day 9 of treatment, but eggs collected on day 4 of treatment had thinner shells, in the feed withdrawal group.

turkey breeder hens = assay: Experiment 7: molting of turkey breeder hens with dietary L-thyroxine, porcine thyroid powder or TIC with or without protease; type: in vivo; settings: for Ending (10 d) Body Wt / Liver Weight / Ovary Weight / Oviduct Weight: turkey breeder hens, 6 per treatment
Source text: Experiment 7. Molting of Turkey Breeder Hens with Dietary L-Thyroxine, Porcine Thyroid Powder, or Thyroactive Iodinated Casein With or Without Protease. Turkey breeder hens were molted with various dietary thyroxine treatments at Diamond K Research, […]. (Jun. 20-Jul. 1, 2005).

White Leghorn hens = settings: excessive injected levels, e.g. 243 micrograms/100 g body weight; cited from earlier work
[8] = 40 mg T4/kg diet, listed as L-T
[9] = 10 mg T4/kg diet fed for 10 days
[10] = 25 mg T4/kg diet fed for 10 days
[11] = 40 mg T4/kg diet fed for 10 days

N[C@@H](Cc1cc(I)c(Oc2cc(I)c(O)c(I)c2)c(I)c1)C(=O)O [L-thyroxine, 3,5,3′,5′-tetraiodo-L-thyronine]
Time out of egg production after treatment (laying turkeys): 4 weeks | Ascites [1]: 7% | Weight gain in 16 days (young rats): 60 g | Toxicity to broiler breeder males ([2]; 25 mg/kg diet or more): toxic to broiler breeder males (death) | Testes of broiler breeder males ([2]; 25 or 40 mg T4/kg diet): testes shown to enlarge | Adverse sign in roosters ([2]; 25 or 40 mg/kg diet): “stroke blood” from the nostrils | Time on treated feed until hens reduced feed intake, ceased egg production and began to molt feathers ([2]; Cobb broiler breeder hens, 25 or 40 ppm): 15 to 17 days | Tolerance of males for thyroxine (T4) alone ([2]; excess causes mortality): < 25 mg/kg diet | Decrease in fiber diameter [3]: 7.8% | Increase in mohair length growth rate [3]: 15% | Egg production ([4]; 250 μg T4 per kg body weight for 12 consecutive days): did not reduce egg production significantly | Onset of molt in all cages after the start of T4 injection ([4]; 500 μg T4 Group): 11 days | Day of T4 injection by which egg production ceased entirely ([4]; 1,000 μg T4 Group): ≤ 8 days | Onset of molt in all cages after the start of T4 injection ([4]; 1,000 μg T4 Group): 9 days | Mortality ([4]; 1,000 μg T4 Group, 2 of 8 hens, 9th and 10th day after start of injection): 25% | Time to complete cessation of egg production ([4]; 2,000 μg T4 per kg body weight for 3 consecutive days): ≤ 6 days | Mortality ([4]; 4,000 μg T4 Group, 1 of 4 hens, 8th day after start of injection): 25% | Time to complete cessation of egg production ([4]; 4,000 μg T4 per kg body weight for 3 consecutive days): ≤ 4 days | End of Injections Body Weight ([4]; 250 mcg/kg body wt i.m. 12 d): 1300 g | Initial Body Weight ([4]; 250 mcg/kg body wt i.m. 12 d): 1495 g | Hen-day egg production ([4]; 250 mcg/kg body wt i.m. 12 d from day 15, day 14): 93.8% | Hen-day egg production ([4]; 250 mcg/kg body wt i.m. 12 d from day 15, day 16): 87.5% | Hen-day egg production ([4]; 250 mcg/kg body wt i.m. 12 d from day 15, day 18): 68.8% | Hen-day egg production ([4]; 250 mcg/kg body wt i.m. 12 d from day 15, day 20): 56.3% | Hen-day egg production ([4]; 250 mcg/kg body wt i.m. 12 d from day 15, day 22): 25.0% | Hen-day egg production ([4]; 250 mcg/kg body wt i.m. 12 d from day 15, day 24): 31.3% | Hen-day egg production ([4]; 250 mcg/kg body wt i.m. 12 d from day 15, day 26): 37.5% | Hen-day egg production ([4]; 250 mcg/kg body wt i.m. 12 d from day 15, day 28): 31.3% | Hen-day egg production ([4]; 250 mcg/kg body wt i.m. 12 d from day 15, day 30): 37.5% | Time after start of injecting until egg production significantly reduced ([4]; 500 and 1,000 μg T4 Groups): 4 days | End of Injections Body Weight ([4]; 500 mcg/kg body wt i.m. 8 d): 1299 g | Initial Body Weight ([4]; 500 mcg/kg body wt i.m. 8 d): 1472 g | Hen-day egg production ([4]; 500 mcg/kg body wt i.m. 8 d from day 15, day 14): 87.5% | Hen-day egg production ([4]; 500 mcg/kg body wt i.m. 8 d from day 15, day 16): 93.8% | Hen-day egg production ([4]; 500 mcg/kg body wt i.m. 8 d from day 15, day 18): 31.3% | Hen-day egg production ([4]; 500 mcg/kg body wt i.m. 8 d from day 15, day 20): 31.3% | Hen-day egg production ([4]; 500 mcg/kg body wt i.m. 8 d from day 15, day 22): 6.3% | Hen-day egg production ([4]; 500 mcg/kg body wt i.m. 8 d from day 15, day 24): 6.3% | Hen-day egg production ([4]; 500 mcg/kg body wt i.m. 8 d from day 15, day 26): 6.3% | Hen-day egg production ([4]; 500 mcg/kg body wt i.m. 8 d from day 15, day 28): 6.3% | Hen-day egg production ([4]; 500 mcg/kg body wt i.m. 8 d from day 15, day 30): 25.0% | Size of regressed reproductive tracts at necropsy ([4]; 1,000 and 4,000 μg T4 Groups): ≤ 50 % normal size | End of Injections Body Weight ([4]; 1,000 mcg/kg body wt i.m. 8 d): 1167 g | Initial Body Weight ([4]; 1,000 mcg/kg body wt i.m. 8 d): 1513 g | Hen-day egg production ([4]; 1,000 mcg/kg body wt i.m. 8 d from day 15, day 14): 81.3% | Hen-day egg production ([4]; 1,000 mcg/kg body wt i.m. 8 d from day 15, day 16): 68.8% | Hen-day egg production ([4]; 1,000 mcg/kg body wt i.m. 8 d from day 15, day 18): 31.3% | Hen-day egg production ([4]; 1,000 mcg/kg body wt i.m. 8 d from day 15, day 20): 12.5% | Hen-day egg production ([4]; 1,000 mcg/kg body wt i.m. 8 d from day 15, day 22): 0.0% | Hen-day egg production ([4]; 1,000 mcg/kg body wt i.m. 8 d from day 15, day 24): 0.0% | Hen-day egg production ([4]; 1,000 mcg/kg body wt i.m. 8 d from day 15, day 26): 0.0% | Hen-day egg production ([4]; 1,000 mcg/kg body wt i.m. 8 d from day 15, day 28): 0.0% | Hen-day egg production ([4]; 1,000 mcg/kg body wt i.m. 8 d from day 15, day 30): 0.0% | Onset of molt in all cages after the start of injection ([4]; 2,000 and 4,000 μg T4 Groups): 9 days | End of Injections Body Weight ([4]; 2,000 mcg/kg body wt i.m. 3 d): 1234 g | Initial Body Weight ([4]; 2,000 mcg/kg body wt i.m. 3 d): 1510 g | Hen-day egg production ([4]; 2,000 mcg/kg body wt i.m. 3 d from day 15, day 14): 62.5% | Hen-day egg production ([4]; 2,000 mcg/kg body wt i.m. 3 d from day 15, day 16): 87.5% | Hen-day egg production ([4]; 2,000 mcg/kg body wt i.m. 3 d from day 15, day 18): 87.5% | Hen-day egg production ([4]; 2,000 mcg/kg body wt i.m. 3 d from day 15, day 20): 75.0% | Hen-day egg production ([4]; 2,000 mcg/kg body wt i.m. 3 d from day 15, day 22): 50.0% | Hen-day egg production ([4]; 2,000 mcg/kg body wt i.m. 3 d from day 15, day 24): 12.5% | Hen-day egg production ([4]; 2,000 mcg/kg body wt i.m. 3 d from day 15, day 26): 0.0% | Hen-day egg production ([4]; 2,000 mcg/kg body wt i.m. 3 d from day 15, day 28): 0.0% | Hen-day egg production ([4]; 2,000 mcg/kg body wt i.m. 3 d from day 15, day 30): 0.0% | End of Injections Body Weight ([4]; 4,000 mcg/kg body wt i.m. 3 d): 1165 g | Initial Body Weight ([4]; 4,000 mcg/kg body wt i.m. 3 d): 1387 g | Hen-day egg production ([4]; 4,000 mcg/kg body wt i.m. 3 d from day 15, day 14): 62.5% | Hen-day egg production ([4]; 4,000 mcg/kg body wt i.m. 3 d from day 15, day 16): 87.5% | Hen-day egg production ([4]; 4,000 mcg/kg body wt i.m. 3 d from day 15, day 18): 100.0% | Hen-day egg production ([4]; 4,000 mcg/kg body wt i.m. 3 d from day 15, day 20): 87.5% | Hen-day egg production ([4]; 4,000 mcg/kg body wt i.m. 3 d from day 15, day 22): 25.0% | Hen-day egg production ([4]; 4,000 mcg/kg body wt i.m. 3 d from day 15, day 24): 0.0% | Hen-day egg production ([4]; 4,000 mcg/kg body wt i.m. 3 d from day 15, day 26): 0.0% | Hen-day egg production ([4]; 4,000 mcg/kg body wt i.m. 3 d from day 15, day 28): 0.0% | Hen-day egg production ([4]; 4,000 mcg/kg body wt i.m. 3 d from day 15, day 30): 0.0% | Reduction in body weight gain compared to controls [5]: 28.18% | Days to target body weight (30% loss) ([6]; 1-day fast or no fast followed by corn diet with or without thyroxine): 28 days | Days to target body weight (30% loss) ([6]; 1-day feed withdrawal, then grape pomace diet plus 10 mg thyroxine/kg): 16 days | Egg production from 66 to 98 weeks ([6]; grape pomace diet plus thyroxine): 64.7% | Week at which daily sperm output returned to control values [7]: 11 week | Week at which plasma testosterone levels returned to control values [7]: 5 week | 2&4 Jun. 05 Egg Weight (Bovans caged laying hens; 20 mg T4/kg diet): 58.68 g | 4 Jun. 05 Shell + Membrane (Bovans caged laying hens; 20 mg T4/kg diet): 0.466^a mm | 9 Jun. 05 (9th d Trt) Body Wt Change (Bovans caged laying hens; 20 mg T4/kg diet): −0.50^b lb | 9 Jun. 05 Ovary + Oviduct (Bovans caged laying hens; 20 mg T4/kg diet): 4.59 % B Wt | 25 May 05 Initial Body Wt (Bovans caged laying hens; 20 mg T4/kg diet): 3.49 lb | Days to 0% Egg Prod. (by Replicate) (Bovans caged laying hens; 20 mg T4/kg diet): 12.0^a Days | 2&4 Jun. 05 Egg Weight (Bovans caged laying hens; 40 mg T4/kg diet): 60.17 g | 4 Jun. 05 Shell + Membrane (Bovans caged laying hens; 40 mg T4/kg diet): 0.446^a mm | 9 Jun. 05 (9th d Trt) Body Wt Change (Bovans caged laying hens; 40 mg T4/kg diet): −0.54 lb | 9 Jun. 05 Ovary + Oviduct (Bovans caged laying hens; 40 mg T4/kg diet): 3.19 % B Wt | 25 May 05 Initial Body Wt (Bovans caged laying hens; 40 mg T4/kg diet): 3.57 lb | Days to 0% Egg Prod. (by Replicate) (Bovans caged laying hens; 40 mg T4/kg diet): 11 days | 9 Jun. 05 (9th d Trt) Body Wt Change (Bovans caged laying hens; [8]): −0.60^b lb | Days to 0% Egg Prod. (by Replicate) (Bovans caged laying hens; [8]): 11.0^a Days | Ending (10 d) Body Wt (turkey breeder hens; [9]): 23.03 lb | Liver Weight (turkey breeder hens; [9]): 143.0^bc g | Ovary Weight (turkey breeder hens; [9]): 159.1^a g | Oviduct Weight (turkey breeder hens; [9]): 124.1^a g | Ending (10 d) Body Wt (turkey breeder hens; [10]): 25.11 lb | Liver Weight (turkey breeder hens; [10]): 144.6^b g | Ovary Weight (turkey breeder hens; [10]): 160.5^a g | Oviduct Weight (turkey breeder hens; [10]): 134.7^a g | Ending (10 d) Body Wt (turkey breeder hens; [11]): 22.99 lb | Liver Weight (turkey breeder hens; [11]): 141.9^bc g | Ovary Weight (turkey breeder hens; [11]): 129.1^a g | Oviduct Weight (turkey breeder hens; [11]): 138.7^a g | Regressing reproductive tracts (turkey breeder hens; 10, 20, or 40 mg T4/kg diet, 10 days): not as effective as porcine thyroid powder | Mortality (White Leghorn hens): 47%
